Results published in US20260176289A1, “SMALL MOLECULE INHIBITORS OF KRAS PROTEINS” (Merck Sharp & Dohme LLC, priority 2022, published 2026).

Tests used:
[1] = test system: AsPC-1 cells; assay: Cellular phospho-ERK assay, AsPC-1 cells (homozygous KRAS-G12D); type: cell-based; settings: Homo sapiens, ASPC1, 2 h, 2 hours compound incubation, read-out: AsPC1 pERK IC50
Procedure, shortened: (§1)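 Inhibition of ERK phosphorylation was determined after treating attached cells with compound for 2 h; top concentration 30 μM, serial 1:3 dilution. Each well's p-ERK:total ERK ratio, read by SureFire Ultra, was fitted with a four-parameter model for IC50.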

[2] = test system: MKN-1 cells; assay: Cellular phospho-ERK assay, MKN-1 cells (amplified wild-type KRAS); type: cell-based; settings: Homo sapiens, 2 hours compound incubation, read-out: MKN1 pERK IC50
Procedure, shortened: as §1

[3] = target: KRAS-G12V (Homo sapiens, UniProt P01116, G12V); assay: SOS-catalyzed nucleotide exchange assay (Procedure A, TR-FRET), KRAS-G12V; type: biochemical; settings: nucleotide exchange, read-out: KRAS G12V GNE IC50
Chain of KRAS-G12V (P01116 with tags, fused parts or gaps isoform P01116-2 G12V): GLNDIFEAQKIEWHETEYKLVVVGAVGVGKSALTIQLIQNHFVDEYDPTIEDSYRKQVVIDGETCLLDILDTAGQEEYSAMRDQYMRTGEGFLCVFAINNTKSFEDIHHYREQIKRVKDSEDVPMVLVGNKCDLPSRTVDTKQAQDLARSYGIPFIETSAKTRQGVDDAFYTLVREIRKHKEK
Procedure, shortened: (§2)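 TR-FRET readout (520/495 nm) of SOS-driven exchange of Bodipy-GDP for unlabeled GTP (3 mM) on biotinylated, Tb-streptavidin-bound RAS, after 60 min compound preincubation at room temperature. Exchange times and RAS/SOS levels: 60 min for WT (1/40 nM), G12C triple mutant (3/40 nM), NRAS (1.25/40 nM); 90 min for G12V (1.25/160 nM). Four-parameter logistic fits on normalized effect.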

[4] = test system: SW620 cells; assay: Cellular phospho-ERK assay, SW620 cells (homozygous KRAS-G12V); type: cell-based; settings: Homo sapiens, SW-620, 2 hours compound incubation, read-out: SW620 pERK IC50
Procedure, shortened: as §1

[5] = target: KRAS-WT (Homo sapiens, UniProt P01116); assay: SOS-catalyzed nucleotide exchange assay (Procedure A, TR-FRET), KRAS-WT; type: biochemical; settings: nucleotide exchange, read-out: KRAS WT GNE IC50
Chain of KRAS-WT (P01116 with tags, fused parts or gaps isoform P01116-2): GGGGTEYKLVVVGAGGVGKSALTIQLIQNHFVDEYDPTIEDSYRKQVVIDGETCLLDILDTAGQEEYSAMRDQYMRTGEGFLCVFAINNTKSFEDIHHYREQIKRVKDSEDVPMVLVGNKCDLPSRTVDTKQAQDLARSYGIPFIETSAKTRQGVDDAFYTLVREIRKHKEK
Procedure, shortened: as §2

[6] = target: KRAS-G12C (C51S/C80L/C118S) (Homo sapiens, UniProt P01116, C118S/C51S/C80L/G12C); assay: SOS-catalyzed nucleotide exchange assay (Procedure A, TR-FRET), KRAS-G12C; type: biochemical; settings: nucleotide exchange, Procedure A; read-out: KRAS G12C GNE IC50
Chain of KRAS-G12C (C51S/C80L/C118S) (P01116 with tags, fused parts or gaps isoform P01116-2 G12C/C51S/C80L/C118S): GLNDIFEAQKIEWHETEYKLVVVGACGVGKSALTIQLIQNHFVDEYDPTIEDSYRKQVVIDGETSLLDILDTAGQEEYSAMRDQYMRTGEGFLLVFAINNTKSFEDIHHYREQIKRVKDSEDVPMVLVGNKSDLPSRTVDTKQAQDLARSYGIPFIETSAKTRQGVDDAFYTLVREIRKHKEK
Procedure, shortened: as §2

[7] = target: KRAS-G12D (Homo sapiens, UniProt P01116, G12D); assay: SOS-catalyzed nucleotide exchange assay (Procedure A, TR-FRET), KRAS-G12D; type: biochemical; settings: nucleotide exchange, read-out: KRAS G12D GNE IC50
Chain of KRAS-G12D (P01116 with tags, fused parts or gaps isoform P01116-2 G12D): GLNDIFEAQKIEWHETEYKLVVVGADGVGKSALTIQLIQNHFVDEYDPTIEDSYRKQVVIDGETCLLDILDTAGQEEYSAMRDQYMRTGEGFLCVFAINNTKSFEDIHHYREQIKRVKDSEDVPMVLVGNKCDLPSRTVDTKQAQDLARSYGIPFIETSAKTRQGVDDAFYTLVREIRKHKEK
Procedure, shortened: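 Signal ratio (520/495 nm, excitation 340 nm) reports Bodipy-GDP retention on biotinylated RAS after SOS-catalyzed exchange with 3 mM GTP. SOS was 40 nM, except 160 nM for G12V. Room-temperature exchange lasted 60 min (90 min for G12V), following a 60 min compound preincubation.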

[8] = target: HRAS (Homo sapiens, UniProt P01112); assay: SOS-catalyzed nucleotide exchange assay (Procedure A, TR-FRET), HRAS; type: biochemical; settings: read-out: HRAS GNE IC50
Chain of HRAS (P01112 with tags, fused parts or gaps): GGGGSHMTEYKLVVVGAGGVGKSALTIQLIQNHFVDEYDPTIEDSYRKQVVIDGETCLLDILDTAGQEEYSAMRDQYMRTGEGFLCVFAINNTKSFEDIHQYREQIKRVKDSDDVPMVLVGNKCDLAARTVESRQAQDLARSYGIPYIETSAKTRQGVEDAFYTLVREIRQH
Source text: Procedure for SOS-Catalyzed Nucleotide Exchange Assay for KRAS-WT, G12C/D/V, G13D, HRAS, and NRAS (Procedure A)
Recombinant KRAS-G12C protein used in this assay has an additional triple mutation (C51S/C80L/C118S). Whereas KRAS-WT, G12D/V, G13D, HRAS and NRAS are in context of their WT protein sequence background. Specifically, the SOS-catalyzed nucleotide exchange assay utilizes a preformed TR-FRET complex containing a specific biotinylated RAS protein (KRAS-WT, G12C/V/D, G13D, HRAS, NRAS; described above) with Bodipy-GDP, and Terbium-streptavidin. Compounds are preincubated with this complex for 60 minutes. Subsequently, recombinant human SOS protein and unlabeled GTP are added to initiate the exchange reaction. Small molecule inhibitors stabilize the Bodipy-GDP complex whereas the untreated protein rapidly exchanges Bodipy-GDP for unlabeled GTP resulting in reduced TR-FRET signal.
To assemble the preformed TR-FRET complexes, each biotinylated RAS protein is diluted to 2 μM in an EDTA Buffer (20 mM HEPES pH 7.5, 50 mM sodium chloride, 10 mM EDTA, and 0.01% Tween) and incubated at room temperature for one hour. This mixture is then further diluted to 90 nM in an Assay Buffer (20 mM HEPES pH 7.5, 150 mM sodium chloride, 10 mM magnesium chloride, and 0.005% Tween) containing 15 nM of Terbium-Streptavidin (Invitrogen, catalog #PV3577) and 900 nM of Bodipy-GDP (Invitrogen, catalog #G22360) and incubated at room temperature for six hours. It should be noted that this preformed TR-FRET complex for each of the RAS protein were made ahead of time, aliquoted and stored at −80° C. until the day of the experiment.
Each test compound (10 mM stock in DMSO) is diluted in DMSO to make a final-10-point, 3-fold dilution and is acoustically dispensed into a 384-well assay plate (Corning, catalog #3820) using an Echo 550 (Labcyte). Each well of the assay plate receives 3 μL of a specific 3×RAS preformed TR-FRET complex and 3 μL of Assay Buffer and is incubated at room temperature for 60 minutes (preincubation time). Each well then receives 3 μL of 3×recombinant human SOS protein and GTP (Sigma, G8877) in Assay Buffer and is incubated at room temperature for 30 minutes (G13D), 60 minutes (KRAS WT/G12C/D, H/NRAS) or 90 minutes for G12V. The final reaction in each well of 9 μL consists of 3 mM GTP, specific Ras and SOS proteins in the following concentrations: KRAS-G12C/SOS=3 nM/40 nM, KRAS-WT and G12D/SOS=1 nM/40 nM, KRAS-G12V/SOS=1.25 nM/160 nM. KRAS-G13D/SOS=1.25 nM/0 nM, HRAS and NRAS=1.25 nM/40 nM.
The time-resolved fluorescence resonance energy transfer (TR-FRET) signal is measured on an Envision (PerkinElmer) plate reader: Excitation filter=340 nm; emission 1=495 nm; emission2=520 nm; dichroic mirror=D400/D505; delay time=[…]. The signal of each well is determined as the ratio of the emission at 520 nm to that at 495 nm. Percent effect of each well is determined after normalization to control wells containing DMSO (no effect) or a saturating concentration of inhibitor (max effect). The apparent effect as a function of compound concentration is fit to a four-parameter logistic equation.

[9] = target: KRAS-G13D (Homo sapiens, UniProt P01116, G13D); assay: SOS-catalyzed nucleotide exchange assay (Procedure A, TR-FRET), KRAS-G13D; type: biochemical; settings: nucleotide exchange, Procedure A; read-out: KRAS G13D GNE IC50
Chain of KRAS-G13D (P01116 with tags, fused parts or gaps isoform P01116-2 G13D): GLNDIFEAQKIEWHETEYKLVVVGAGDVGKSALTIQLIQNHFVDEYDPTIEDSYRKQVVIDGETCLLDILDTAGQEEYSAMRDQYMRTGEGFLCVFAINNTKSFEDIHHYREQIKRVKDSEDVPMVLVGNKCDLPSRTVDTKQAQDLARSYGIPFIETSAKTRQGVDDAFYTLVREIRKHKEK

[10] = target: T1, KRAS G12D (amino acids 1-169) (Homo sapiens, UniProt P01116, G12D); assay: SOS-catalyzed nucleotide exchange assay (Procedure B, BODIPY FL GDP displacement), KRAS G12D; type: biochemical; settings: read-out: KRAS G12D GNE IC50
T1 construct: made in house; host or cells: E. coli
T1 sequence (P01116 with tags, fused parts or gaps isoform P01116-2 G12D): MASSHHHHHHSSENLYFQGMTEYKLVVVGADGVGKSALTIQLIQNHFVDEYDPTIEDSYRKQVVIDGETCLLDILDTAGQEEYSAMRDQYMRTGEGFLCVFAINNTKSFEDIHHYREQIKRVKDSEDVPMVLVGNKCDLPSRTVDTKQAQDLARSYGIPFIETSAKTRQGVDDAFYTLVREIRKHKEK
Procedure, shortened: (§3)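 Purified BODIPY FL GDP-loaded KRAS (aa 1-169, E. coli-expressed), 2.5 nM, preincubated with compound 1 h at 25° C in Tris pH 7.5/MgCl2 buffer; SOS1 (aa 564-1049) plus GMPPNP then added, 30 min at room temperature. Fluorescence ratio before/after exchange normalized to DMSO and no-SOS1/GMPPNP controls; IC50 by 4-parameter logistic fit.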

[11] = target: T2, KRAS G12C (amino acids 1-169) (Homo sapiens, UniProt P01116, G12C); assay: SOS-catalyzed nucleotide exchange assay (Procedure B, BODIPY FL GDP displacement), KRAS G12C; type: biochemical; settings: read-out: KRAS G12C GNE IC50
T2 construct: made in house; host or cells: E. coli
T2 sequence (P01116 with tags, fused parts or gaps isoform P01116-2 G12C): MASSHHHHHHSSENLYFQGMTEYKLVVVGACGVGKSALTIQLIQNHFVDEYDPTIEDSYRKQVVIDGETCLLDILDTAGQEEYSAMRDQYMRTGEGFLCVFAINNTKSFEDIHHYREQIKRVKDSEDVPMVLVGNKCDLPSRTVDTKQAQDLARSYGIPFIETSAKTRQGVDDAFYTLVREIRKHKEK
Procedure, shortened: as §3

[12] = target: T3, KRAS G12V (amino acids 1-169) (Homo sapiens, UniProt P01116, G12V); assay: SOS-catalyzed nucleotide exchange assay (Procedure B, BODIPY FL GDP displacement), KRAS G12V; type: biochemical; settings: read-out: KRAS G12V GNE IC50
T3 construct: made in house; host or cells: E. coli
T3 sequence (P01116 with tags, fused parts or gaps isoform P01116-2 G12V): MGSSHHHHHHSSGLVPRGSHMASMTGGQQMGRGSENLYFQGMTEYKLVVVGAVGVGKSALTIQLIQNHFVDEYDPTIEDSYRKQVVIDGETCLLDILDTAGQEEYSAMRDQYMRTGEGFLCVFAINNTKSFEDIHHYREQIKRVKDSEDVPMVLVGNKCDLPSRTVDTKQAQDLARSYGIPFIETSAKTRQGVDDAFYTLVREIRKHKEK
Procedure, shortened: as §3

[13] = target: T4, KRAS WT (amino acids 1-169) (Homo sapiens, UniProt P01116); assay: SOS-catalyzed nucleotide exchange assay (Procedure B, BODIPY FL GDP displacement), KRAS WT; type: biochemical; settings: read-out: KRAS WT GNE IC50
T4 construct: made in house; host or cells: E. coli
T4 sequence (P01116 with tags, fused parts or gaps isoform P01116-2): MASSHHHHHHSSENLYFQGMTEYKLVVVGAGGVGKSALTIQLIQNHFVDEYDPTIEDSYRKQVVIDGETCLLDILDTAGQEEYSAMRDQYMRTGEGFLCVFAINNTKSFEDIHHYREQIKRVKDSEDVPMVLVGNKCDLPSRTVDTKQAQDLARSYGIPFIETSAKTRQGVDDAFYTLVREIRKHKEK
Procedure, shortened: as §3

IC50 [1]	IC50 [2]	IC50 [3]	IC50 [4]	IC50 [5]	IC50 [6]	IC50 [7]	IC50 [8]	IC50 [9]	IC50 [10]	IC50 [11]	IC50 [12]	IC50 [13]	SMILES
22.3 nM	17 nM	4.42 nM	15.1 nM	3.94 nM	40.1 nM	1.69 nM	5090 nM	10.7 nM	–	–	–	–	CN1CCC[C@@]2(COc3nc(N4CCOC[C@@](C)(O)C4)c4c(n3)sc3c(-c5c(C6CC6)c(C(F)(F)F)cc6[nH]ncc56)nccc34)CCC[C@@H]12 [Ex-205, (6S)-4-(8-(5-cyclopropyl-6-(trifluoromethyl)-1H-indazol-4-yl)-2-(((4aS,7aR)-1-methyloctahydro-4aH-cyclopenta[b]pyridin-4a-yl)methoxy)pyrido[4′,3′:4,5]thieno[2,3-d]pyrimidin-4-yl)-6-methyl-1,4-oxazepan-6-ol]
58.8 nM	39.3 nM	10.4 nM	36.1 nM	20 nM	19.4 nM	4.31 nM	2220 nM	45.8 nM	–	–	–	–	COC1(C)CN(C[C@@]2(COc3nc(N4CCOC[C@@](C)(O)C4)c4c(n3)sc3c(-c5c(C6(F)CC6)c(Cl)cc6[nH]ncc56)nccc34)CC2(F)F)C1 [Ex-240, (6S)-4-(8-(6-chloro-5-(1-fluorocyclopropyl)-1H-indazol-4-yl)-2-(((R)-2,2-difluoro-1-((3-methoxy-3-methylazetidin-1-yl)methyl)cyclopropyl)metho-xy)pyrido[4′,3′:4,5]thieno[2,3-d]pyrimidin-4-yl)-6-methyl-1,4-oxazepan-6-ol]
25.7 nM	–	8.77 nM	–	8.55 nM	20.3 nM	2.87 nM	492 nM	15 nM	–	–	–	–	[2H]C([2H])([2H])N(C[C@@]1(COc2nc(N3CCOC[C@@](C)(O)C3)c3c(n2)sc2c(-c4c(C5(F)CC5)c(Cl)cc5[nH]ncc45)nccc23)CC1(F)F)C([2H])([2H])[2H] [Ex-231]
–	–	–	–	–	–	–	–	–	7.18 nM	15.4 nM	15.5 nM	26.9 nM	C#Cc1c(Cl)cc2[nH]ncc2c1-c1nccc2c1sc1nc(OC[C@@]34CCCN3C[C@H](F)C4)nc(N3CCOC[C@@](C)(O)C3)c12 [Ex-158, (6S)-4-(8-(6-chloro-5-ethynyl-1H-indazol-4-yl)-2-(((2R,7aS)-2-fluorotetrahydro-1H-pyrrolizin-7a(5H)-yl)methoxy)pyrido[4′,3′:4,5]thieno[2,3-d]pyrimidin-4-yl)-6-methyl-1,4-oxazepan-6-ol]
–	–	–	–	–	–	–	–	–	274 nM	518 nM	402 nM	473 nM	CC1(C)Cc2cc3[nH]ncc3c(-c3nccc4c3sc3nc(OC[C@@]56CCCN5C[C@H](F)C6)nc(N5CCOC[C@@](C)(O)C5)c34)c2C1 [Ex-112, (6S)-4-(8-(6,6-dimethyl-1,5,6,7-tetrahydrocyclopenta[f]in-dazol-4-yl)-2-(((2R,7aS)-2-fluorotetrahydro-1H-pyrrolizin-7a(5H)-yl)methoxy)pyrido[4′,3′:4,5]thi-eno[2,3-d]pyrimidin-4-yl)-6-methyl-1,4-oxazepan-6-ol]
–	–	–	–	–	–	–	–	–	27.3 nM	52.4 nM	65.6 nM	56.5 nM	CC1(F)c2c(cc3[nH]ncc3c2-c2nccc3c2sc2nc(OC[C@@]45CCCN4C[C@H](F)C5)nc(N4CCOC[C@@](C)(O)C4)c23)CC1(F)F (single isomer, unassigned) [Ex-99]
–	–	–	–	–	–	–	–	–	3.56 nM	10.3 nM	10.4 nM	7.84 nM	CCC1CC(F)(F)c2cc3[nH]ncc3c(-c3nccc4c3sc3nc(OC[C@@]56CCCN5C[C@H](F)C6)nc(N5CCOC[C@@](C)(O)C5)c34)c21 (stereo partly drawn) [Ex-102, (6S)-4-(8-(5-ethyl-7,7-difluoro-1,5,6,7-tetrahydrocyclopenta[f]in-dazol-4-yl)-2-(((2R,7aS)-2-fluorotetrahydro-1H-pyrrolizin-7a(5H)-yl)methoxy)pyrido[4′,3′:4,5]thi-eno[2,3-d]pyrimidin-4-yl)-6-methyl-1,4-oxazepan-6-ol]
–	–	–	–	–	–	–	–	–	3630 nM	1260 nM	3200 nM	2190 nM	Cc1cc2[nH]ncc2c(-c2nccc3c2sc2nc(OC[C@@]45CCCN4C[C@H](F)C5)nc(N4CCOCC(C)C4)c23)c1C(F)(F)F (stereo partly drawn) [Ex-182, 4-(2-(((2R,7aS)-2-fluoro-tetrahydro-1H-pyrrolizin-7a(5H)-yl)methoxy)-8-(6-methyl-5-(trifluorometh-yl)-1H-indazol-4-yl)pyrido [4′,3′:4,5]thieno[2,3-d]pyr-imidin-4-yl)-6-methyl-1,4-oxazepane]
–	–	–	–	–	–	–	–	–	438 nM	819 nM	1260 nM	933 nM	C[C@@]1(O)COCCN(c2nc(OC[C@@]34CCCN3C[C@H](F)C4)nc3sc4c(-c5c(C6=CCOC6)c(Cl)cc6[nH]ncc56)nccc4c23)C1 [Ex-74, (6S)-4-(8-(6-chloro-5-(2,5-dihydrofuran-3-yl)-1H-indazol-4-yl)-2-(((2R,7aS)-2-fluorotetrahydro-1H-pyrrolizin-7a(5H)-yl)methoxy)pyrido[4′,3′:4,5]thi-eno[2,3-d]pyrimidin-4-yl)-6-methyl-1,4-oxazepan-6-ol]
